{"source": "patent US20110224300A1", "about": "“USE OF POTASSIUM 2-(a- HYDROXYPENTYL) BENZOATE IN THE MANUFACTURE OF MEDICAMENTS FOR PREVENTING AND/OR TREATING SENILE [sequence]” (Institute of Mataria Medica, Chinese Academy of Me, priority 2008, published 2011)", "key": {"[1]": {"system": "SOD", "test": "SOD activity of brain tissues from permanent 2-VO rats", "type": "in vivo, rat", "settings": "for SOD activity in cortex: 21 days", "protocol": "(§1) In 10 days after onset of 2-VO, drugs and vehicle were administered orally to rats for 21 days (one time/each day). The spatial learning and memory capability of rats were detected by Morris water maze in the 25-30 days after operation. The Morris water test was commenced at 40 min after drugs treated. The biochemical and pathology assays were conducted later (in 24 h) after behavioral tests.\n(§2) The biochemical assays were conducted later (in 24 h) after behavioral testing. Eight rats in each group were anesthetized with ether and sacrificed. The brains were quickly removed and cleaned with ice-cold saline. Then the parietal cortex and hippocampus were isolated. For biochemical analysis, the tissues were weighed and homogenized in ice-cold saline with the proportion of 1:9 (w/v). Homogenization (IKA, Germany) was carried out for 2 min in an ice bath. After the homogenates were centrifuged at 2,000×g for 10 min at 4° C. (Sigma, Germany), the supernatant was used for analytical procedures. The levels of choline acetyltransferase (ChAT) SOD, and MDA activities were determined with commercial colorimetric assay kits (Nanjing Jiancheng Bioengineering Institute, China). The content of protein in the supernatant was determined by Bradford method using BSA as standard."}, "[2]": {"system": "MDA", "test": "MDA level of brain tissues from permanent 2-VO rats", "type": "in vivo, rat", "settings": "for MDA level in cortex: 21 days", "protocol": "as §1, §2"}, "[3]": {"system": "GFAP", "test": "GFAP immunohistochemistry, activated astrocytes of 2-VO rats", "type": "in vivo, rat", "protocol": "(§3) The method for tissue fixation was described above. Serial coronal sections (40 μm) of the brains were cut through the dorsal hippocampus on a freezing microtome and collected in 6-well plates containing 0.01 M PBS. The detection of GFAP and BDNF immunoreactivity was performed using a conventional avidin-biotin-immunoperoxidease technique.\n(§4) For quantitative analysis, one from every five samples in a continuous series of hippocampal or cortical tissue sections was taken, and was processed immunohistochemically. Thus, three slides were taken from each rat, and were read under an objective (×1.6) microscope. The total area of positively stained neurons was counted with Image-pro Plus 5.0 software.\nCerebral damage caused by hypoperfusion may be the basis for spatial learning and memory impairment, including earliest white matter damage, accompanied by an increase of astrocytes and microglia activation. Glial fibrillary acidic protein (GFAP) immunohistochemical staining can be used to label the activated astrocytes. 2-3 photos were taken from each selected slices in the same regions. The number of the GFAP positive astrocytes was calculated as the average value of the region. Four anatomical regions were selected to observe: the cortex, hippocampus, corpus callosum and optic tract."}, "[4]": {"system": "BDNF", "test": "BDNF immunohistochemistry in 2-VO rats", "type": "in vivo, rat", "settings": "for BDNF expression in hippocampus CA1, CA2, CA3 area: 21 days", "protocol": "as §3, §4"}, "[5]": {"system": "Aβ(25-35)-induced dementia rats", "test": "Morris water maze in Aβ(25-35)-induced dementia rats", "type": "in vivo, Male Wistar rats", "settings": "Aβ(25-35) rats; for percentage of time in the target quadrant (probe test): vehicle 21.6±1.6%", "protocol": "Subjects were tested in a Morris water maze. This test is based on a standardized assessment of spatial learning ability. The water maze apparatus consisted of a circular, stainless pool (120 cm in diameter, 60 cm in height). It was placed in a dimly lit, sound-proof test room. Multiple distant cues around the room (window, cabinets, furniture) were kept in the same location throughout the experiments. The water was filled to a depth of 40 cm at 25±1° C. and was made opaque by adding milk powder to prevent visualization of the platform. A transparent platform (10 cm diameter) was put 1.5 cm below the surface of the water. The tank was divided into four quadrants with the platform in a fixed position in one quadrant. The subjects were placed into the maze facing the pool wall and were allowed two trials per day, 60 s per trial, to find the hidden platform. If the subject found the platform within the 60 s, it was given a 10-s rest period on the platform between trials. If the pedestal was not located within the time allotted, the subject was placed on to the platform and allowed 10 s until the next trial. The escape latency (time to reach the platform) was used to assess acquisition of the water maze task. Sessions were repeated for five consecutive days. On the sixth day, the platform was removed and the rat was allowed to search for the platform for 60 s (probe test). The time in the platform quadrant and latency time to cross platform location were recorded to measure the spatial learning ability without the influence of chance encounters with the platform. The Morris water maze sessions were recorded with a video camera for offline analysis.\nAβ(25-35)-induced dementia model in 10 months of Male Wistar rats with 600 g B.W. was created by slow injection of 15 nmol (volume of 50) aggregation of Aβ (25-35). Sham-operation group was only injected with PBS (volume of 50). After operation, the animals were injected penicillin 200 000 units for 4 days by intraperitoneal injection.\n(§5) Rats were divided into four experimental groups randomly (10 rats/each group): one sham-operated group, one vehicle control group, and two dl-PHPB-treated groups (39, and 129 mg/kg). At 1 days after operation, drugs and vehicle were administered orally to rats for 14 days (one time/each day). The spatial learning and memory abilities of rats were detected by Morris water maze in the 9-12 days after operation. The testing of Morris water was commenced at 40 min after drugs treated. The biochemical and pathology assays conducted later (in 24 h) after behavioral testing.\nThe navigation test was performed in 9-12 days after icy Aβ (25-35) by the same method as the before. On the thirteenth day, the platform was removed and the rat was allowed to search for the platform for 30 s (probe test). The time in the platform quadrant and latency time to cross platform location were recorded to measure the spatial learning ability without the influence of chance encounters with the platform."}, "[6]": {"system": "ChAT", "test": "ChAT activity of brain tissues from Aβ(25-35)-induced dementia rats", "type": "in vivo, Male Wistar rats", "settings": "Aβ(25-35) rats, 2 weeks", "protocol": "as §2\nas §5, with “The biochemical and pathology assays conducted later (in 24 h) after behavioral testing.” left out"}}}
{"smiles": "CCCCC(O)c1ccccc1C(=O)[O-].[K+]", "note": "(racemic) [dl-PHPB, Potassium 2-(1-Hydroxypentyl)-benzoate]", "values": [{"measurement": "SOD activity in cortex", "setting": "[1]; dl-PHPB 13 mg/kg", "value": "significantly alleviated the increase of SOD activity"}, {"measurement": "SOD activity in cortex", "setting": "[1]; dl-PHPB 39 mg/kg", "value": "significantly alleviated the increase of SOD activity"}, {"measurement": "SOD activity in hippocampus", "setting": "[1]; hippocampus, doses not given", "value": "no significant effects"}, {"measurement": "MDA level in cortex", "setting": "[2]; dl-PHPB 13 mg/kg", "value": "decreased MDA level"}, {"measurement": "MDA level in cortex", "setting": "[2]; dl-PHPB 39 mg/kg", "value": "decreased MDA level"}, {"measurement": "MDA level in cortex", "setting": "[2]; dl-PHPB 129 mg/kg", "value": "decreased MDA level"}, {"measurement": "MDA level in hippocampus", "setting": "[2]; hippocampus, doses not given", "value": "no significant effects"}, {"measurement": "GFAP-positive cells in the hippocampus", "setting": "[3]; administration of 21 days, P<0.05 or P<0.01", "value": "significantly less than in the vehicle group"}, {"measurement": "GFAP-positive cells in the cortex", "setting": "[3]; administration of 21 days, in particular dl-PHPB 39 mg/kg (P<0.01)", "value": "significantly less than in the vehicle group"}, {"measurement": "GFAP-positive cells in the optic tract", "setting": "[3]; dl-PHPB 39 mg/kg, 21 days", "value": "significantly less than the vehicle group"}, {"measurement": "GFAP-positive cells in the hippocampus", "setting": "[3]; dl-PHPB 39 mg/kg, 21 days, P<0.01", "value": "most significant effect"}, {"measurement": "GFAP positive cells in the corpus callosum", "setting": "[3]; dl-PHPB 39 mg/kg, P<0.05", "value": "significantly decreased level of GFAP positive cells"}, {"measurement": "GFAP-positive cells in the optic tract", "setting": "[3]; dl-PHPB 129 mg/kg, 21 days", "value": "significantly less than the vehicle group"}, {"measurement": "GFAP-positive cells in the hippocampus", "setting": "[3]; dl-PHPB 129 mg/kg, 21 days, P<0.01", "value": "most significant effect"}, {"measurement": "BDNF expression in hippocampus CA1, CA2, CA3 area", "setting": "[4]; dl-PHPB 39 mg/kg, P<0.05 or P<0.01", "value": "significantly increased BDNF expression"}, {"measurement": "BDNF expression in hippocampus CA1, CA2, CA3 area", "setting": "[4]; dl-PHPB 129 mg/kg", "value": "only a trend without statistical significance"}, {"measurement": "expression of BDNF in the cortex (staining intensity)", "setting": "[4]; strongest at 39 mg/kg, succeeded by 129 mg/kg and 13 mg/kg", "value": "increase the expression of BDNF"}, {"measurement": "escape latency", "setting": "[5]; 39 mg/kg orally, 2nd day of training, P<0.05", "value": "shorter than sham group"}, {"measurement": "escape latency", "setting": "[5]; 39 mg/kg orally, 3rd to 4th days", "value": "shorter than vehicle group"}, {"measurement": "percentage of time in the target quadrant (probe test)", "setting": "[5]; 39 mg/kg orally, trend only", "value": "24.6±3.0", "unit": "%"}, {"measurement": "escape latency", "setting": "[5]; 129 mg/kg orally, 3rd to 4th days, P<0.05 or P<0.01", "value": "significantly shorter than vehicle group"}, {"measurement": "percentage of time in the target quadrant (probe test)", "setting": "[5]; 129 mg/kg orally, sham 32.8±4.0%, p<0.05 vs vehicle", "value": "30.2±2.5", "unit": "%"}, {"measurement": "time of the first cross platform (probe test)", "setting": "[5]; dose not specified", "value": "shorten trend"}, {"measurement": "cortical ChAT activity", "setting": "[6]; 39 mg/kg, P<0.05", "value": "significantly increased the ChAT activity"}, {"measurement": "cortical ChAT activity", "setting": "[6]; 129 mg/kg", "value": "strong trend"}]}
